Point of comparison: `O=C(NCC(=O)N(c1ccccc1)c1ccccc1)c1ccc2ccccc2c1`, melting point 205 °C. Against it:
- Cc1ccc(S(=O)(=O)Nc2ccc(/C(CN3CCN(C)CC3)=N/O)cc2)cc1 — lower, 192 to 193 °C
- Cc1cc(-c2nnn(C)n2)cc(C)c1OCCCC(N)=O — lower, 155 to 156 °C
- CCN1CCOc2nc(Cl)c(Cl)nc21 — lower, 108 to 110 °C
- O=[N+]([O-])c1ccc(OC2OC(CO)C(O)C2O)cc1 (configuration not stated) — lower, 156 to 158 °C
- CCNC(=O)c1c(Cl)cccc1OC(C)(C)C — lower, 126 to 127 °C
- C=Cc1cc2c(c3ccc(O)cc13)OCc1cc(O)ccc1-2 — higher, > 220 °C
- CCOC(=O)C1=C(S(=O)(=O)Cl)CCCC1 — lower, 31.5 to 32.5 °C
- O=C1N(Cc2ccc(C(F)(F)F)o2)c2ccccc2C12COc1cc3c(cc12)OCC3 (configuration not stated) — lower, 174 to 177 °C
- CC(C)(CCCN)C(Cc1c[nH]c([N+](=O)[O-])n1)=NO — lower, 136 to 137 °C
- CC(=O)NCCCCC(NC(C)=O)C(C)=O (configuration not stated) — lower, 111 to 113 °C
- COc1ccc(OCCCCBr)c(C2(SC)Sc3ccccc3N(C)C2=O)c1 (configuration not stated) — lower, 102 to 103 °C
- CC(=O)NC[C@H]1CN(c2ccc(N3CCC(O)(CNC4CC4)CC3)c(F)c2)C(=O)O1 — lower, 160 to 162 °C
- COc1cc(C)cc2nc(S(=O)(=O)Nc3cc(C)cnc3F)nn12 — higher, 262 to 264 °C
- COC(=O)c1ccc2ccc(C#N)cc2c1 — lower, 136 °C
- c1ccc(-c2cc(-c3ccccc3)c(N3CCN(c4ncccn4)CC3)nn2)cc1 — lower, 71 to 74 °C
- Cc1ccccc1Cc1nc[nH]c1C — lower, 138 to 140 °C
- CCCCCCCCCCCC1=NCCN1 — lower, 82 °C
- CCOC(=O)CCc1nc(-c2ccccc2)cc2ccccc12 — lower, 60 °C
- Cc1cccc(NN)n1 — lower, 54 to 56 °C
- CC(=O)C(=CNc1cc(Cl)c(Cl)c(C(=O)O)c1Cl)C(C)=O — higher, 242 to 244 °C
- Cc1ccc(C2COc3c(C)c(C)c(N)c(C)c32)cc1 (configuration not stated) — lower, 121 to 122 °C
- Cc1ccc(Cl)c(C(=O)c2ccc(Cl)cc2)c1Cl — lower, 132 to 136 °C
- COc1cc2cc(CO)c(CO)c(-c3cccc(-n4c(=O)ccc5ccccc54)n3)c2cc1OC — lower, 142 to 143 °C
- O=C1NC(=O)c2c1c(-c1ccccc1Cl)cc1oc3cc(OS(=O)(=O)C(F)(F)F)c(O)cc3c21 — higher, 237 to 240 °C
- COC(=O)CC1NC(=O)c2ccccc21 (configuration not stated) — lower, 136 to 138 °C
- COCCOCc1nn2c(-c3ccc(OC)cc3)nnc2c2ccccc12 — lower, 129 to 131 °C
- CCC(=O)Nc1cc(-c2sc(C(C)O)nc2-c2cccc(C)c2)ccn1 (configuration not stated) — lower, 115 to 116 °C
- COC(=O)C(C)c1ccc2cc(OC(=O)CO)ccc2c1 (configuration not stated) — lower, 49.5 to 52 °C
- Cc1cc(C(Cl)=NNc2ccccc2)ccc1[N+](=O)[O-] — lower, 146 to 148 °C
- O=C(O)C1CCC2C(=O)N(c3ccccc3)C(=S)N12 (configuration not stated) — higher, 230 °C
- CN1Cc2cccc3c2c(cn3C)S1(=O)=O — lower, 190 °C
- COC(=O)c1cncn1C(c1ccccc1)c1ccccc1 — lower, 129 °C
- COc1ccc(-n2nc(Sc3ccc(S(C)=O)cc3)c(C)c(C#N)c2=O)cc1 (configuration not stated) — lower, 176 to 178 °C
- CCSC1C(=O)N=C(NC(=O)Nc2cccc(Cl)c2)N1C (configuration not stated) — lower, 102 to 104 °C
- CCn1cc(C(=O)O)c(=O)c2cc(F)c(-c3csc(CN)n3)c(F)c21 — lower, 199 to 203 °C
- CCC(OC)c1oc(C)cc(=O)c1OCc1ccccc1 (configuration not stated) — lower, 63 to 65 °C
- CC(=CC#N)NCc1ccc(Cl)nc1 — lower, 95 to 98 °C
- CN(C)c1cccc2c1C(=O)NS2(=O)=O — higher, 228 to 229 °C
- O=[N+]([O-])c1ccc(-c2nnc3ccc(Cl)nn23)s1 — higher, 215 to 217 °C
- Cc1nc(N2C(=O)N(Cc3ccc(F)cc3)CC2O)sc1C(=O)NCc1cccnc1 (configuration not stated) — lower, 64 to 66 °C
- Cc1sc(C(F)(F)F)nc1O — lower, 108 to 110 °C
- COC(=O)c1cccc2c1Nc1cccc(I)c1C2 — lower, 108 to 110 °C
- CNc1nc(C)c(-c2ccnc(Nc3ccc(CCO)cc3)n2)s1 — higher, 216 to 218 °C
- O=c1[nH]c2cc(Cl)ccc2c(O)c1Sc1ccccc1Cl — higher, > 300 °C
- O=C(Nc1cc(Cl)c(N2CCNCC2)c(Cl)c1)c1ccc(F)c(OCc2cccnc2)c1 — lower, 81 to 85 °C
- CCCNc1onc2c1c(=O)n(C)c(=O)n2C — lower, 164 to 166 °C
- Cn1cncc1C(O)(c1ccc(-c2ccc(Cl)cc2)cc1)c1ccc2c(c1)c(-c1cccc(Cl)c1)cc(=O)n2C (configuration not stated) — higher, 236 °C
- CC(C)c1nc(CN2C(=O)C3(COc4cc5c(cc43)OCCO5)c3ccccc32)cs1 (configuration not stated) — lower, 60 to 63 °C
- COC(=O)c1[nH]c(Br)c(Br)c1OC(C)C — lower, 124 to 125 °C
- COc1ccc(CNC(=O)c2ccccc2N)cc1 — lower, 104 to 105 °C
- CC(=O)N1CCN(CCOc2cc(OC(C)C)c3c(Nc4c(Cl)cnc5c4OCO5)ncnc3c2)CC1 — higher, 208 to 210 °C
- CCOC(=O)N1CCN(c2ccc(C3=NNC(=O)CC3C)cc2F)CC1 (configuration not stated) — lower, 193 to 194 °C
- COc1ccc(-c2c(Cl)c(Cn3cnc4ccccc43)nc3sc4c(c23)CCSC4)cc1 — lower, 201 to 203 °C
- O=C(Nc1cc([N+](=O)[O-])cc([N+](=O)[O-])c1)C1CC1 — lower, 147 to 149 °C
- CC(C)(C)OC(=O)COc1ccc(C=O)cc1 — lower, 56 to 57 °C
- Nc1ccc2c(c1)CC(=O)c1ccccc1O2 — lower, 116 to 117 °C
- CCOCC(COCC)Oc1ccc(/C=C/C(=O)OCC)c(Oc2ncc(C(F)(F)F)cc2Cl)c1 — lower, 66 to 67.5 °C
- Cc1ccc(S(=O)(=O)N2C[C@H]3C[C@@H]2CN3Cc2ccccc2)cc1 — lower, 124 °C
- COC(=O)c1ccc(C(=O)Nc2ccc(C)c(Nc3nc(-c4cccnc4)cs3)c2)cc1 — lower, 195 °C
- CC(C)(C)[Si](C)(C)N1C(=O)C[C@H]1CI — lower, 71 to 72 °C
- CCNC(=O)N1c2ccccc2-c2noc3c2C1CCC3 (configuration not stated) — lower, 189 °C
- COC(=O)C1=C(C)NC(C)=C(C(=O)OCCN2CCN(C(c3ccc(F)cc3)c3ccc(F)cc3)CC2)C1c1cccc([N+](=O)[O-])c1 (configuration not stated) — lower, 68 to 72 °C
- BrCCc1nc(-c2ccccc2)c(-c2ccccc2)o1 — lower, 72 to 74 °C
- COCCc1ncc(CO)c(NCc2ccc(-c3ccccc3-c3nnnn3C(c3ccccc3)(c3ccccc3)c3ccccc3)cc2)n1 — lower, 118 to 120 °C
- O=C(CCCCl)c1ccc2ccccc2c1O — lower, 73 to 79 °C
- CCOC(=O)c1cccc(-n2nc(C(=O)OCC)c3csc(N)c3c2=O)c1 — lower, 159 to 160 °C
- CNC(=NC#N)NCCCSc1nccc(NC(N)=NCC(F)(F)F)n1 — lower, 159 to 160 °C
- CCCc1cc(OCC)c2c(c1OC)S(=O)(=O)N(CSc1nnnn1-c1ccccc1)C2=O — lower, 110 to 111 °C
- CCC(C)(C)c1cc(C(=O)O)c(O)c(C(C)(C)CC)c1 — lower, 132 to 133 °C
- CCN(CC)c1cccc2nc(Cc3c(Cl)cc(C(F)(F)F)cc3Cl)n(C)c12 — lower, 150 to 151 °C
- O=C(NCc1ccc(Cl)cc1)c1cnc2cc(C#CCO)ccc2c1O — higher, 218 to 220 °C
- Oc1ccccc1Oc1ccc(-c2ccsc2)cc1O — lower, 114 to 116 °C
- CC(C)(C)C(=O)C(Oc1ccc(Cl)cc1)c1cccnc1 (configuration not stated) — lower, 50 °C
- C=C(F)C(F)(F)n1ncc(-c2ccc(S(N)(=O)=O)cc2)c(-c2ccc(F)cc2)c1=O — higher, 230 to 232 °C
- CCc1c(-c2ccc(O)cc2)c2cc(C(C)=O)c3ccc(CO)c1n32 — lower, 194 to 195 °C
- CCCCCCCCCCOc1ccc(Br)cc1C12CC3CC(CC(C3)C1)C2 — lower, 69 to 70 °C
- CCOP(=O)(CCN(OCc1ccccc1)S(=O)(=O)c1ccc(C)cc1)OCC — lower, 78 to 80 °C
- CC(C)(C)OC(=O)N1CCN(C(=O)OC(C)(C)C)C(C(O)(Cc2ccccc2)Cc2ccccc2)C1 (configuration not stated) — lower, 150 °C
- COc1ccc2c(c1)C(O)=C(C(=O)Nc1cncc(Cl)n1)N(C)S2(=O)=O — higher, 289 to 291 °C
- CCOc1cc2ncc(C#N)c(Nc3ccc(Sc4ccccc4)c(Cl)c3)c2cc1OCC — lower, 88 to 94 °C
- O=C(CN(C(=O)C(=O)N(CC(=O)OCc1ccccc1)S(=O)(=O)C(F)(F)F)S(=O)(=O)C(F)(F)F)OCc1ccccc1 — lower, 53 to 55 °C
- O=C(c1cc(Br)cc(Br)c1)c1cc(Br)cc(Br)c1 — higher, 208 to 209 °C
- CCC(O)(c1ccc(O)cc1)c1ccc(Br)cc1 (configuration not stated) — lower, 161 to 162 °C
- O=C(O)c1cccc(-c2nccc(-c3ccc(F)cc3)n2)c1 — higher, 239 to 241 °C
- CC(C)(c1cc(F)ccc1O)c1cc(F)ccc1O — lower, 155 °C
- C=CC(=O)NCCOC(C)(C)OCCNC(=O)C=C — lower, 94 to 95 °C
- CC(c1ccc(-c2ccc(F)cc2)cc1)N1CCN(CCO)CC1 (configuration not stated) — lower, 120 to 123 °C
- O=C(Nc1ccccc1)C1C(=O)Sc2ccccc21 (configuration not stated) — lower, 140 to 142 °C
- COc1cc2ncnc(Nc3ccc4ccccc4n3)c2cc1OC — higher, 215 to 216 °C
- Cc1ccc2c(Cl)c(Cl)ccc2n1 — lower, 84 to 85 °C
- COc1ccnc(CCc2nc3cc(-c4ccc(S(=O)(=O)NC5CCCCC5)cc4)cnc3[nH]2)c1 — lower, 199 to 200 °C
- COc1ccc(S(=O)(=O)C2(CCCC#Cc3cccc(N)c3)SC(=O)NC2=O)cc1 (configuration not stated) — lower, 135 to 138 °C
- O=c1nc(N2CCC=C(c3ccccc3)C2)sc2ncccc12 — lower, 167 to 169 °C
- CC(=O)c1cccc(Cl)c1C(=O)O — lower, 128 to 129 °C
- COc1ccc(Cn2cnc(=O)c3[nH]c(C(C)C)nc32)cc1OCc1ccccc1 — higher, 233 to 235 °C
- FC(F)(F)COc1ccc(-c2cc(C(F)(F)F)n3ncc(-c4cccnc4)c3n2)cc1C(F)(F)F — lower, 181 °C
- Cc1oc(-c2ccccc2)nc1COc1ccc(/C=C/C(=O)C(=O)O)cc1 — lower, 197 to 198 °C
- CS(=O)(=O)c1ccc(Cl)c2[nH]ccc12 — lower, 160 to 162 °C
- NC(=O)/C=C1/c2cc(F)ccc2CC1O[N+](=O)[O-] (configuration not stated) — lower, 162 to 163 °C
- CCOCc1nc2c(N)nc3cc(-c4cccnc4)ccc3c2n1CC(C)(C)OCCS(C)(=O)=O — lower, 202 to 204 °C
- COC(=O)CCC(=O)Oc1c(C)n(Cc2ccccc2)c2c(OCc3ccccc3)nncc12 — lower, 189 to 190 °C

From a melting point compilation (Tetko et al.; mined from patent text by program, amines drawn as free bases though some values may be those of a salt)
